Experiments:
[1] = tested on: uterus; assay: Uterotrophic assay (estrogenic activity from uterine weights); assay type: in vivo, Sprague Dawley rats; design: scale not given here; settings: female rats, test compound alone once daily for 7 days, s.c. or oral gavage; uterine weight vs vehicle control
From the text: B. Uterotrophic and antiuterotrophic assays
Sprague Dawley rates are obtained from Simmonsen Laboratories, Gilroy, Calif. Estradiol benzoate may be purchased from Sigma Chemical Co., St. Louis, Mo.
The procedure of Wakeling et al., Endocrinology 99:447453 (1983) is followed. Female Sprague Dawley rats weighing 40-50 grams are used for the experiment. In general, animals are quarantined for 3 days after arrival at the experimental site.
Rats are initially weighed and randomly divided into groups with 5 animals in each group. For the uterotrophic assay, animals are dosed once daily with various doses of test compounds in 0.1 or 1.0 ml of sterile saline via subcutaneous injection or oral gavage, respectively. For the antiuterotrophic assay, animals are dosed once daily with the same doses indicated above plus 0.5 μg/rat of estradiol benzoate alone.
The animals are treated for 7 days. On day 8, animals are weighed and then sacrificed. The uterus of each animal is removed immediately after death and weighed; fat materials are trimmed off prior to weighing.
A comparison of uterine weights from the groups receiving test compound alone with those of the vehicle control group gives the estrogenic activity. Antiestrogenic activity is obtained by comparing the uterine weights from the groups receiving test compound plus estradiol with those of the estradiol control group.

[2] = biological target: T1, Estrone Sulfatase (Homo sapiens, UniProt P08842); assay: Effects of Inhibitors on Estrone Sulfatase Activity in MCF-7 Cells; assay type: cell-based; settings: intact MCF-7 human breast cancer cells, 3H-estrone sulfate substrate, 24 h, 37° C.; read-out: Estrone Sulfatase Inhibitory Activity IC50
T1 construct: endogenous in cells; host or cells: MCF-7 human breast cancer cells (American Type Culture Collection)
T1 sequence (P08842 22-583): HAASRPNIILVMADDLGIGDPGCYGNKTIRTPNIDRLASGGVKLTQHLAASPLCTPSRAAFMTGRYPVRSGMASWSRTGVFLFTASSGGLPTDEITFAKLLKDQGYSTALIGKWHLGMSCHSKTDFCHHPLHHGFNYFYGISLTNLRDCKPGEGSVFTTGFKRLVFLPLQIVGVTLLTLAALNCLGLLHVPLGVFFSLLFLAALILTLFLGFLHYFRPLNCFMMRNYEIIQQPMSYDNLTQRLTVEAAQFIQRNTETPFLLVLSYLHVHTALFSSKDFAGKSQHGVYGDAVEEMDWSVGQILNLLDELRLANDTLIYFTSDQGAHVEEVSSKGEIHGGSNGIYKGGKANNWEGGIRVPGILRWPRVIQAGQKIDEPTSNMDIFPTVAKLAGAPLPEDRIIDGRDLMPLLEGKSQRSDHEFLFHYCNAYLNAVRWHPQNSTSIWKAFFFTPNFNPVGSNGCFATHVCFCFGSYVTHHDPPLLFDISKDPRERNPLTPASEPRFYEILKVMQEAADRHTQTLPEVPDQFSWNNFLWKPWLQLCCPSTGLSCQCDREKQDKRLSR
From the text: A. Effects of Inhibitors on Estrone Sulfatase Activity in MCF-7 Cells
Reagents: MCF-7 human breast cancer cell line was supplied by the American Type Culture Collection, Rockville, MD. Eagle's minimum essential medium (MEM) and fetal calf serum (FCS) were purchased from Sigma Chemical Company, St. Louis, Mo. [4-^14 C]Estrone, [6,7-^3 H]estradiol and [6,7-^3 H](N)estrone sulfate were obtained from New England Nuclear Research Products, Boston, Mass.
Procedure: The method of Duncan et al., Cancer Res. 53:298-303 (1993) was employed. MCF-7 cells were seeded in 60 mm×15 mm culture dishes at 1×10^5 cells/dish and maintained in 4.0 ml of MEM containing 2 mM glutamine and 5% FCS. The cells were incubated at 37° C. in an atmosphere of 5% CO2 /95% air and 100% humidity, with the medium changed every third day. When the cells reached 80% confluency, the intact monolayers were washed once with Earl's balanced salt solution and incubated in 4.0 ml of serum and phenol re-free MEM containing either the substrate (^3 H-estrone sulfate, 7 pmol, 9×10^5 dpm) and inhibitor dissolved in ethanol, or ethanol alone. The fmal ethanol concentration was always below 1%. The incubation continued under the regular conditions for 24 h. At the end of 24 h, 2.0 ml of medium was transferred into separate tubes containing 7×10^3 dpm of ^14 C-estrone. The mixture was vortexed vigorously for 60 s with 5 ml of toluene. After phase separation, 2.0 ml of the organic phase was transferred into a counting vial for scintillation counting. The amount of estrone sulfate hydrolyzed was calculated on the basis of ^3 H counts obtained, with the added ^14 C-estrone counts used to correct for recovery through the extraction procedure.
The cells remaining in each culture dish were washed once with saline and then scraped with 1.0 ml of 0.5 N NaOH into 10×75 mm tubes. The cell pellets in each tube was incubated at 50° C. for 20 min to ensure that digestion was complete and all proteins had became soluble. An aliquot was then taken for protein determination by Lowry's method (Lowry et al., J. Biol. Chem. 193:265-275 (1951)).
The percentage of inhibition was determined by evaluating the quantity of estrone sulfate hydrolyzed with the inhibitor relative to that without the inhibitor.
As a general practice, all available inhibitors were first tested at 100 μM; the ones showing inhibitory effects at that concentration were tested again at various concentrations to obtain the IC50 values.

Structure (SMILES)	Estrogenic Activity [1]	IC50 [2] [nM]
CCC/C=C1/CC[C@H]2[C@@H]3CCc4cc(OS(N)(=O)=O)ccc4[C@H]3CC[C@]12C [Compound 17, [17(20)Z]-19,21-Dinorchola-1,3,5(10)17(20)-tetraene-3-O-sulfamate]	0.55	0.011
CC[C@H]1CC[C@H]2[C@@H]3CCc4cc(OS(N)(=O)=O)c(OC)cc4[C@H]3CC[C@]12C [Compound 71, 2-Methoxy-19-norpregna-1,3,5(10)-triene-3-O-sulfamate]	0	1.5
CN(C)CCO[C@@H]1CC[C@H]2[C@@H]3CCc4cc(OS(N)(=O)=O)ccc4[C@H]3CC[C@]12C [Compound 55, 17α-(2'-N,N-Dimethylaminoethoxy)estra-1,3,5(10)-triene-3-O-sulfamate]	0	26
CC(=O)Nc1cc2c(cc1OS(N)(=O)=O)CC[C@@H]1[C@@H]2CC[C@]2(C)C(=O)CC[C@@H]12 [Compound 93, 2-Acetoamideestra-1,3,5(10)-trien-17-one-3-O-sulfamate]	0.02	410
CN(C)CCO[C@H]1CC[C@H]2[C@@H]3CCc4cc(OS(N)(=O)=O)ccc4[C@H]3CC[C@]12C [Compound 44, 17β-(2'-N,N-Dimethylaminoethoxy)estra-1,3,5(10)-triene-3-O-sulfamate]	0	24
CCOC(=O)/C=C1\CC[C@H]2[C@@H]3CCc4cc(OS(N)(=O)=O)ccc4[C@H]3CC[C@]12C [Compound 34, Ethyl 3-Sulfamoyloxy-[17(20)E]-19-norpregna-1,3,5(10),17(20)-tetraen-21-oate]	0	0.27
CN(C)c1c(OS(N)(=O)=O)ccc2c1CC[C@@H]1[C@@H]2CC[C@]2(C)C(=O)CC[C@@H]12 [Compound 88, 4-Dimethylaminoestra-1,3,5(10)-trien-17-one-3-O-sulfamate]	0	515

Reference: patent US6046186A, “Estrone sulfamate inhibitors of estrone sulfatase, and associated pharmaceutical compositions and methods of use” (SRI International, priority 1997, dated 2000)
